The test system of one assay is KB. The assay is described as follows: Cytotoxicity against human KB cells after 72 hrs. Type of assay: functional, cell-based.
The next assay has as its system SK-MEL. The assay is described as follows: Cytotoxicity against human SK-MEL cells at 20 ug/mL after 72 hrs. Type of assay: functional.
Another assay relates to A549. The assay is described as follows: Cytotoxicity against human A549 cells at 20 ug/mL after 72 hrs. The format is functional. The conditions noted are these: A549, 72 h.

SMILES strings stand for the structures. pIC50: −log10 of the molar value.

Usually pIC50 stands for −log10 of the IC50, conventionally taken in molar units. High values mean a low IC50, low ones a high IC50. On to `C=C(C(=O)O)[C@@H]1CC[C@@]2(C)CC[C@@H](O)[C@@](C)(O)[C@@H]2C1`, for which, in the assay with KB, the pIC50 was less than 4.00. The inhibition is the relative decrease from the control value, in per cent. A low value points to little suppression. Regarding `C=C(C(=O)O)[C@@H]1CC[C@@]2(C)CCC[C@@](C)(O)[C@@H]2C1` [ILICIC ACID], the inhibition at 20 µg/mL turned out to be 23.6% with SK-MEL and 10.3% with A549.

For the origin of these results see ChEMBL document CHEMBL1146570, “Eudesmane derivatives and other sesquiterpenes from Laggera alata” (J Nat Prod, 2003).
